The subject of test [1] is hamsters fed a high cholesterol diet. Nature of the test: Measurement of lipid lowering effect in hamsters fed a high cholesterol diet. It counts as in vivo, Male Golden Syrian hamsters. The following applies: for inhibition in vivo at 0.01 mg/kg / inhibition in vivo at 0.1 mg/kg: Mesocricetus auratus, po, 168 h, gavage once daily, 7 days; for a serum TC lowering effect at a dose of 0.1 mg/kg: Table 22, suppression rate of an increase in serum TC concentration. The gist of the method: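 Male Golden Syrian hamsters (6/group) on 0.5% cholesterol diet, dosed by gavage once daily in corn oil at 0.01 to 10 mg/kg; serum and liver sampled 4 h after last dose. TC, TG and LDL-C measured enzymatically; effects expressed as % suppression versus control and normal-diet groups.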

The test system of another test is Caco-2 cells. Description: Cholesterol absorption inhibition assay (in vitro), [14C] cholesterol mixed micelles. The class given is cell-based. The settings on record: Homo sapiens, 24 hours, read-out: cholesterol absorption inhibitory activity; for inhibition at 12.5 µM: concentration of 12.5 μM; for inhibition at 10 µM: concentration of 10 μM. The gist of the method:
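Caco-2 cells cultured 2 weeks, then incubated 24 h at 37° C with [14C] cholesterol mixed micelles (oleate, phosphatidylcholine, taurocholate) plus compound at 0.5 to 25 μM final. Lipids extracted, cholesteryl ester separated by TLC and quantified by imaging plate; inhibition as background-corrected percentage of solvent control.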

[2] abbreviates: read-out: liver TC lowering effect (suppression rate of an increase in liver TC concentration).
Where [3] appears, read: read-out: serum LDL-C lowering effect (suppression rate of an increase in serum LDL-C concentration).
Where [4] appears, read: read-out: serum TC lowering effect (suppression rate of an increase in serum TC concentration).
The mark [5] stands for this setting: read-out: serum TG lowering effect (serum TG lowering rate).

Where two headings read alike, the source gives them in different places.

As to `O=C1[C@H](SC[C@H](O)c2ccc(Cl)cc2)[C@@H](c2ccc(O)cc2)N1c1ccc(-c2cncc(Cl)c2)cc1` [Example 87, (3R,4R)-3-[(2R)-2-(4-chlorophenyl)-2-hydroxyethylthio]-1-[4-(5-chloropyridin-3-yl)phenyl]-4-(4-hydroxyphenyl)azetidin-2-one], the inhibition in vivo at 0.01 mg/kg in test [1] (setting [2]), in test [1] (setting [3]) and in test [1] (setting [4]) was ≥ 30% in each case. The inhibition at 12.5 µM with Caco-2 cells is ≥ 60%.
`Cc1cc(O)ccc1[C@@H]1[C@@H](SC[C@H](O)c2ccc(F)cc2)C(=O)N1c1ccc(-c2cncc(C(F)(F)F)c2)cc1` [Example 99, (3R,4R)-3-[(2R)-2-(4-fluorophenyl)-2-hydroxyethylthio]-4-(4-hydroxy-2-methylphenyl)-1-[4-(5-trifluoromethylpyridin-3-yl)phenyl]azetidin-2-one]: the inhibition in vivo at 0.1 mg/kg in test [1] (setting [5]) was ≥ 20%. In the test on Caco-2 cells, the inhibition at 12.5 µM was ≥ 60%.
Take `O=C1[C@H](SC[C@H](O)c2ccc(F)cc2)[C@@H](c2ccc(O)cc2)N1c1ccc(-c2cncc(F)c2)cc1` [Example 55, (3R,4R)-3-[(2R)-2-(4-fluorophenyl)-2-hydroxyethylthio]-1-[4-(5-fluoropyridin-3-yl)phenyl]-4-(4-hydroxyphenyl)azetidin-2-one]: the inhibition in vivo at 0.01 mg/kg in test [1] (setting [2]), in test [1] (setting [3]) and in test [1] (setting [4]) was ≥ 30% throughout. In addition, in test [1] (setting [5]), the inhibition in vivo at 0.1 mg/kg was ≥ 20%. Further, the “a serum TC lowering effect at a dose of 0.1 mg/kg” value in test [1] came to 130%. In addition, the inhibition at 10 µM with Caco-2 cells is ≥ 50%.
As to `Cc1cncc(-c2ccc(N3C(=O)[C@H](SC[C@H](O)c4ccc(Cl)cc4)[C@H]3c3ccc(O)cc3)cc2)c1` [Example 85, (3R,4R)-3-[(2R)-2-(4-chlorophenyl)-2-hydroxyethylthio]-4-(4-hydroxyphenyl)-1-[4-(5-methylpyridin-3-yl)phenyl]azetidin-2-one], the inhibition in vivo at 0.01 mg/kg in test [1] (setting [3]) and in test [1] (setting [4]) was ≥ 30% each time. Moreover, in the test with Caco-2 cells, the inhibition at 12.5 µM was ≥ 60%.
For `O=C1[C@H](SC[C@H](O)c2ccc3occc3c2)[C@@H](c2ccc(O)cc2)N1c1ccc(-c2cccnc2)cc1` [Example 31, (3R,4R)-3-((2R)-2-benzo[b]furan-5-yl-2-hydroxyethylthio)-4-(4-hydroxyphenyl)-1-[4-(pyridin-3-yl)phenyl]azetidin-2-one], the inhibition in vivo at 0.01 mg/kg in test [1] (setting [4]) is ≥ 30%. Besides, the inhibition in vivo at 0.1 mg/kg in test [1] (setting [5]) is ≥ 20%. Further, in the test with Caco-2 cells, the inhibition at 10 µM is ≥ 50% and the inhibition at 12.5 µM was ≥ 60%.
On to `Cc1cc(O)ccc1[C@@H]1[C@@H](SC[C@H](O)c2ccc(F)cc2)C(=O)N1c1ccc(-c2cccnc2)cc1` [Example 38, (3R,4R)-3-[(2R)-2-(4-fluorophenyl)-2-hydroxyethylthio]-4-(4-hydroxy-2-methylphenyl)-1-[4-(pyridin-3-yl)phenyl]azetidin-2-one], for which, in test [1] (setting [3]), the inhibition in vivo at 0.01 mg/kg is ≥ 30% and the inhibition in vivo at 0.1 mg/kg was ≥ 50%. The inhibition in vivo at 0.1 mg/kg in test [1] (setting [4]) was ≥ 50%. Also, in the test on Caco-2 cells, the inhibition at 10 µM is ≥ 50%.
Take `O=C1[C@H](SC[C@H](O)c2ccc(F)cc2)[C@@H](c2ccc(O)cc2)N1c1ccc(-c2cncc(C(F)(F)F)c2)cc1` [Example 51, (3R,4R)-3-[(2R)-2-(4-fluorophenyl)-2-hydroxyethylthio]-4-(4-hydroxyphenyl)-1-[4-(5-trifluoromethylpyridin-3-yl)phenyl]azetidin-2-one]: the inhibition in vivo at 0.01 mg/kg in test [1] (setting [4]) was ≥ 30%. Besides, the inhibition in vivo at 0.1 mg/kg in test [1] (setting [5]) was ≥ 20%. Moreover, the “a serum TC lowering effect at a dose of 0.1 mg/kg” value in test [1] amounted to 104%. Further, the inhibition at 10 µM in the test with Caco-2 cells is ≥ 50%.
Turning to `Cc1ccc(-c2ccc(N3C(=O)[C@H](SC[C@H](O)c4ccc(Cl)cc4)[C@H]3c3ccc(O)cc3)cc2)cn1` [Example 91, (3R,4R)-3-[(2R)-2-(4-chlorophenyl)-2-hydroxyethylthio]-4-(4-hydroxyphenyl)-1-[4-(6-methylpyridin-3-yl)phenyl]azetidin-2-one], the inhibition in vivo at 0.01 mg/kg in test [1] (setting [4]) was ≥ 30%. In addition, in the test with Caco-2 cells, the inhibition at 12.5 µM was ≥ 60%.

For the origin of these results see patent US20100125059A1, “1-BIARYLAZETIDINONE DERIVATIVE” (Teijin Pharma Limited, priority 2007, published 2010).
